# Values of other authors as cited in US20060111442A1, “Use of methyl pyruvate to increase cellular energy production downstream of glycolysis for the PARP-1 ablation of HIV without necrotic cell death caused by continuous, chronic PARP-1 activation through the concomitant depletion of ATP and NAD” (priority 2004, published 2006).
# Columns and labels:
# PDK4 [1] = conditions: control and high-fat-fed rats
# PDK4 [2] = conditions: feeding
# [3] = tested on: hepatic stellate cells (HSC); conditions: 10 microm 15dPGJ(2); 0.1 approximately 10 microm BRL49653; WY14643 >100 microm, not <10 microm
# mGPDH-deficient islets = conditions: both NADH shuttles halted
# [4] = tested on: guinea-pig cerebral cortical synaptosomes
# Na(+)-K(+)-ATPase = conditions: 10 microM
# [5] = 1 mmol.kg-1.d-1, 7 d; P<0.01
compound,measurement,setting,value
Cc1cccc(Nc2cc(Cl)nc(SCC(=O)O)n2)c1C [WY14643],hepatic PDK4 protein,PDK4 [1],significantly increased PDK4 protein
same,"pyruvate dehydrogenase kinase activity, PDK4 protein, PDK4 mRNA in gastrocnemius muscle",PDK4 [2],induced large increases
same,HSC DNA and collagen synthesis,[3],inhibited
NOCC(=O)O [amino-oxyacetic acid],glucose-induced insulin secretion,mGPDH-deficient islets,almost completely abrogated
same,negative shift in the cytosolic NAD+/NADH redox potential,[4],26 mV
C[C@@H]1O[C@@H](O[C@H]2C[C@@H](O)[C@]3(CO)[C@H]4[C@H](O)C[C@]5(C)[C@@H](C6=CC(=O)OC6)CC[C@]5(O)[C@@H]4CC[C@]3(O)C2)[C@H](O)[C@H](O)[C@H]1O [ouabain],glycolysis and lactate production,Na(+)-K(+)-ATPase,decreased glycolysis and lactate production
CCO[C@@H](Cc1ccc(OCCc2ccc(OS(C)(=O)=O)cc2)cc1)C(=O)O [tesaglitazar],insulin sensitivity (glucose infusion rate during hyperinsulinemic-euglycemic clamp),[5],improved the insulin sensitivity
